From patent publication US12605374B2, “Methods for drug screening and compositions useful for the inhibition of cell proliferation and/or cell survival” (The Brigham and Women's Hospital, Inc., priority 2019, dated 2026)
“Also recorded” adds a separate entry of the source.

What was measured:
[1] = tested on: embryonic zebrafish; assay: Blinded re-screen of top 10 prioritized ChemBridge compounds for developmental phenotypes in embryonic zebrafish; format: in vivo; conditions: for Phenotype Observed: embryonic zebrafish, 10 uM introduced at 5 hpf, scored at 24 and 48 hpf, blinded, in duplicate
Procedure: Male and female wild-type (AB) fish were housed and embryos bred for screening using standard protocols. […] 10 mM compound stocks were diluted to 2 mM using DMSO, and 1 μL of each diluted compound solution was introduced into individual wells at 5 hours post fertilization (hpf) using a manual multichannel pipettor (10 uM final concentration). The first and last column of each plate received only DMSO, serving as negative control wells.
Embryos were screened for a series of developmental phenotypes at both 24 and 48 hpf using standard light microscopy. […] Only those wells where at least two of the three embryos were dead or delayed were annotated as a hit for 24 hour death or delay/arrest, respectively.
Resulting scores for each phenotype were used to rank the over 900,000 compounds. Enrichment for compounds with high (>0.95) similarity to known therapeutics (defined using Tanimoto Coefficient of molecular fingerprints) was calculated for each of the 6 ranked lists using gene set enrichment analysis^69. The top 10 highest-ranking compounds from each of the 6 lists were screened as described above, blinded and in duplicate.

[2] = tested on: zebrafish embryos; assay: Rescue of developmental delay/arrest phenotype by phospholipase products; format: in vivo; conditions: for rescue of the developmental delay/arrest phenotype of DA5: zebrafish embryos treated with DA5
From the text: FIG. 15 (A)-(B): Effect of timing and injection on DA5 rescue. Rescue of the DA5 phenotype was compared using introduction of phosphatidic acid (PAC) in-well, versus injected into the embryo at the 1-cell developmental stage (A; DA5 introduced at 5 hpf).
Given the known role of anoxia in cancer cell proliferation, we investigated the potential of the DA compounds to inhibit cancer cell growth in cell culture. We found a significant reduction in the proliferation of immortalized cells upon introduction of all DA compounds (FIG. 16).

C[C@@H]1CN(C(=O)c2cc(COc3ccc4ncccc4c3)on2)C[C@H](C)O1 [ChemBridge ID 44889923]
Hit (predicted phenotype observed) ([1]; Prediction: Delay/Arrest): Yes | Phenotype Observed [1]: Look 24 h at 48 h

CN(CC1CCN(CCc2ccc(Cl)cc2)CC1)C(=O)c1ccccc1-n1cccn1 [ChemBridge ID 18069546]
Hit (predicted phenotype observed) ([1]; Prediction: Cardiac): Yes | Phenotype Observed [1]: Pericardial edema, no heart beat

Cc1oc(-c2cccc(C(F)(F)F)c2)nc1CN1CCCCC1c1nccn1C (stereo not drawn) [ChemBridge ID 91866361]
Hit (predicted phenotype observed) ([1]; Prediction: Pigmentation): Yes | Phenotype Observed [1]: No pigmentation, cranial edema, slow heart beat

COC(=O)c1ccc(-c2noc(CN(CCO)Cc3cccs3)n2)cc1 [ChemBridge ID 56638922]
Hit (predicted phenotype observed) ([1]; Prediction: Body Axis): Yes | Phenotype Observed [1]: Small heads, short bodies

Br.COc1ccccc1Nc1nc(-c2sc(C)nc2C)cs1 [ChemBridge ID 5931065]
Hit (predicted phenotype observed) ([1]; Prediction: Dead): Yes | Phenotype Observed [1]: Dead (48 h)

CN(CC1CCN(CCc2ccc(Cl)cc2)CC1)C(=O)c1ccsc1 [ChemBridge ID 59314184]
Hit (predicted phenotype observed) ([1]; Prediction: Cardiac): Yes | Phenotype Observed [1]: Pericardial edema, no heart beat

O=C(Nc1ccccc1Cl)N1CCN(c2ccccc2F)CC1 [ChemBridge ID 7008803]
Hit (predicted phenotype observed) ([1]; Prediction: Cranial Edema): No | Phenotype Observed [1]: slight discoloration

O=C(c1cc(COc2ccc3ncccc3c2)on1)N1CCC(N2CCSCC2)CC1 [ChemBridge ID 45187255]
Hit (predicted phenotype observed) ([1]; Prediction: Delay/Arrest): Yes | Phenotype Observed [1]: Bud stage at 24 h, 5-18 somites at 48 h

COC(=O)c1ccc(-c2noc(CN(CCO)Cc3ccccc3)n2)cc1 [ChemBridge ID 86606851]
Hit (predicted phenotype observed) ([1]; Prediction: Body Axis): Yes | Phenotype Observed [1]: Some dead, alive have no head, necrotic

CCOC(=O)C1(CCOc2ccccc2)CCN(Cc2ccc(OC)cc2)CC1 [ChemBridge ID 38617825]
Hit (predicted phenotype observed) ([1]; Prediction: Cardiac): No | Phenotype Observed [1]: Dead (48 h)

OCCC1CN(Cc2ccc(F)cc2F)CCN1CCCc1ccccc1 (stereo not drawn) [ChemBridge ID 35983174]
Hit (predicted phenotype observed) ([1]; Prediction: Cardiac): Yes | Hit (predicted phenotype observed) ([1]; Prediction: Cardiac Only): Yes | Phenotype Observed [1]: Pericardial edema, no heart beat

O=C(c1cc(COc2ccc3ncccc3c2)on1)N1C[C@H]2CCC[C@H]1C2 [ChemBridge ID 54305680]
Hit (predicted phenotype observed) ([1]; Prediction: Delay/Arrest): Yes | Phenotype Observed [1]: Bud stage at 24 h, dead at 48 h

COC(=O)c1ccc(-c2noc(CN(Cc3ccncc3)CC3CCCO3)n2)cc1 (stereo not drawn) [ChemBridge ID 18809966]
Hit (predicted phenotype observed) ([1]; Prediction: Body Axis): Yes | Phenotype Observed [1]: Small body (appear dorsalized)

CC(NCc1ccccc1O)C12CC3CC(CC(C3)C1)C2 (stereo not drawn) [ChemBridge ID 6108849]
Hit (predicted phenotype observed) ([1]; Prediction: Pigmentation): Yes | Hit (predicted phenotype observed) ([1]; Prediction: Pigmentation Only): Yes | Phenotype Observed [1]: No pigmentation, dying

CSc1ccc(-c2nc(CN3CCCCC3c3nccn3C)c(C)o2)cc1 (stereo not drawn) [ChemBridge ID 23702187]
Hit (predicted phenotype observed) ([1]; Prediction: Pigmentation): Yes | Phenotype Observed [1]: No pigmentation, cranial edema, slow heart beat

COC(=O)c1ccc(-c2nc(CN3CCCCC3c3cccc(OC)c3)c(C)o2)cc1 (stereo not drawn) [ChemBridge ID 20494296]
Hit (predicted phenotype observed) ([1]; Prediction: Body Axis): Yes | Phenotype Observed [1]: Short, no heads

O=C(c1cc(COc2ccc3ncccc3c2)on1)N1C[C@@H]2C[C@H]3C[C@@H](C2)C[C@@H]1C3 [ChemBridge ID 19759648]
Hit (predicted phenotype observed) ([1]; Prediction: Delay/Arrest): Yes | Phenotype Observed [1]: Bud stage at 24 h, dead at 48 h

CCOC(=O)C1(Cc2cccc(OC)c2)CCCN(Cc2nccn2CC)C1 (stereo not drawn) [ChemBridge ID 38433186]
Hit (predicted phenotype observed) ([1]; Prediction: Pigmentation): Yes | Hit (predicted phenotype observed) ([1]; Prediction: Pigmentation Only): Yes | Phenotype Observed [1]: No pigmentation

Phosphatidic acid
rescue of the DA5 phenotype ([2]; DA5 introduced at 5 hpf, PAC in-well at 24 hpf, phenotypes surveyed at 36 hpf): rescue still observed | rescue of the DA5 phenotype ([2]; upon injection and introduction into embryonic medium, multiple time points after DA5): rescued | rescue of the developmental delay/arrest phenotype of DA5 [2]: rescued | rescue of the developmental delay/arrest phenotype of DA5 ([2]; listed as phosphatidic acid): rescue | rescue of the phenotype of oligomycin A ([2]; zebrafish embryos treated with oligomycin A): did not rescue

CN(CC1CCN(CCc2ccc(F)cc2)CC1)C(=O)c1ccsc1 [ChemBridge ID 26410496]
Hit (predicted phenotype observed) ([1]; Prediction: Cardiac): Yes | Phenotype Observed [1]: Pericardial edema, no heart beat

COC(=O)c1ccc(-c2nc(CN3CCCCC3c3nc4cc(F)ccc4[nH]3)c(C)o2)cc1 (stereo not drawn) [ChemBridge ID 22685803]
Hit (predicted phenotype observed) ([1]; Prediction: Body Axis): Yes | Phenotype Observed [1]: Most dead, remaining have small bodies

CCOC(=O)C1(C/C=C/c2ccccc2)CCCN(Cc2nccn2CC)C1 (stereo not drawn) [ChemBridge ID 69904708]
Hit (predicted phenotype observed) ([1]; Prediction: Pigmentation): Yes | Hit (predicted phenotype observed) ([1]; Prediction: Pigmentation Only): Yes | Phenotype Observed [1]: No pigmentation, cranial edema, slow heart beat

CCOC(=O)C1(Cc2ccccc2)CCCN(Cc2nccn2CC)C1 (stereo not drawn) [ChemBridge ID 98334673]
Hit (predicted phenotype observed) ([1]; Prediction: Pigmentation): Yes | Hit (predicted phenotype observed) ([1]; Prediction: Pigmentation Only): Yes | Phenotype Observed [1]: No pigmentation, cranial edema

O=P(O)(O)O[C@@H]1[C@H](O)[C@H](O)[C@@H](OP(=O)(O)O)[C@H](OP(=O)(O)O)[C@H]1O [D-myo-Inositol-1,4,5-triphosphate]
rescue of the developmental delay/arrest phenotype of DA5 [2]: did not observe rescue

O=C(c1cc(COc2ccc3ncccc3c2)on1)N1CCCC(OCc2ccccn2)C1 (stereo not drawn) [ChemBridge ID 21652166]
Hit (predicted phenotype observed) ([1]; Prediction: Delay/Arrest): Yes | Phenotype Observed [1]: 5-10 somite stage at 48 h

COCC1CCN(C(=O)c2cc(COc3ccc4ncccc4c3)on2)CC1 [ChemBridge ID 13197878]
Hit (predicted phenotype observed) ([1]; Prediction: Delay/Arrest): Yes | Phenotype Observed [1]: Bud stage at 24 h, dead at 48 h

CN(CC1CCN(CCc2ccc(Cl)cc2)CC1)C(=O)C1=CCCCC1 [ChemBridge ID 37690524]
Hit (predicted phenotype observed) ([1]; Prediction: Cardiac): Yes | Phenotype Observed [1]: Pericardial edema, no heart beat

CN(CC1CCN(CCc2ccc(Cl)cc2)CC1)C(=O)c1cccc(N(C)C)c1 [ChemBridge ID 39911836]
Hit (predicted phenotype observed) ([1]; Prediction: Cardiac): Yes | Phenotype Observed [1]: Pericardial edema, no heart beat

CCOC(=O)C1(CCOc2ccccc2)CCN(Cc2cc(OC)cc(OC)c2)CC1 [ChemBridge ID 23490385]
Hit (predicted phenotype observed) ([1]; Prediction: Cardiac): Yes | Hit (predicted phenotype observed) ([1]; Prediction: Cranial Edema): No | Phenotype Observed [1]: Pericardial edema, no heart beat

CCOC(=O)C1(CCOc2ccccc2)CCN(Cc2ccccc2OC)CC1 [ChemBridge ID 87194463]
Hit (predicted phenotype observed) ([1]; Prediction: Cardiac): No | Phenotype Observed [1]: Dead (48 h)

CCOC(=O)C1(CCc2ccccc2)CCCN(Cc2nccn2CC)C1 (stereo not drawn) [ChemBridge ID 13300080]
Hit (predicted phenotype observed) ([1]; Prediction: Pigmentation): Yes | Hit (predicted phenotype observed) ([1]; Prediction: Pigmentation Only): Yes | Phenotype Observed [1]: No pigmentation, dying; also recorded: No pigmentation, slow heart beat

COc1ccccc1Nc1nc(-c2ccncc2)cs1 [ChemBridge ID 5745969]
Hit (predicted phenotype observed) ([1]; Prediction: Dead): No | Phenotype Observed [1]: Multiple severe phenotypes

COC(=O)c1ccc(-c2nc(CN(C)C(C)c3nc(C)cs3)c(C)o2)cc1 (stereo not drawn) [ChemBridge ID 34105851]
Hit (predicted phenotype observed) ([1]; Prediction: Body Axis): Yes | Phenotype Observed [1]: Small body (no head)
